Data on 1 compound can be found in patent publication EP3436024B1, “3-BETA-METHOXY-PREG FOR USE IN THE TREATMENT OF TREATMENT RESISTANT DEPRESSION” (Mapreg, priority 2016, dated 2017).

Each structure is given as a SMILES string.

One assay concerns the target Oppioid K (Rattus norvegicus, UniProt P34975). Briefly: CNS receptor binding assay, opioid K. Particulars: MAP4343 10 µM; [^3H] U 69593; rat recombinant (CHO cells); read-out: % Inhibition of control specific binding. The method, then:
(§1) MAP4343 has been screened for in vitro affinity to 80 different CNS neurotransmitters receptors using various validated binding assays.
(§2) Table 4. In vitro affinity of MAP4343 (10 µM) for CNS neurotransmitter receptors associated with side effects and/or abuse liability. Data are the average of two individual assays for each receptor and are expressed as % inhibition of the control specific binding of the reference compound. Results showing an inhibition higher than 50% are considered to represent significant effects of the test compound.

For assay [1], the target named is T1, Muscarinic (Cholinergic) M4 (Homo sapiens, UniProt P08173).
T1 construct: expressed in transfected cells; host or cells: CHO cells
T1 sequence (P08173 whole entry): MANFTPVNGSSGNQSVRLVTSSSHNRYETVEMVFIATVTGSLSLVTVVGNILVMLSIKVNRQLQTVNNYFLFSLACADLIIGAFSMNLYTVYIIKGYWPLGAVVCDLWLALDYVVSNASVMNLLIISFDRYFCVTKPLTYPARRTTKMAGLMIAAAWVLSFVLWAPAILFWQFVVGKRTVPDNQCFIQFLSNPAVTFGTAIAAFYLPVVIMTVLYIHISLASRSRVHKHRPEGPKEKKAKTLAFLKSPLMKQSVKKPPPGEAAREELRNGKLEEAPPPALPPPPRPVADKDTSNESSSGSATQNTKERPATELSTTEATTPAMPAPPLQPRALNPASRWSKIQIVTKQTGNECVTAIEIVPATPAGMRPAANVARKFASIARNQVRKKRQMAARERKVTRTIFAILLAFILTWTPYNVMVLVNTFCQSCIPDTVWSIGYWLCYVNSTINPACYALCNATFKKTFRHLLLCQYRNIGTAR
Briefly: CNS receptor binding assay, M4. The conditions noted are these: MAP4343 10 µM; [^3H] 4-DAMP; Human recombinant (CHO cells); read-out: % Inhibition of control specific binding. The method, then: as §1, §2

Another assay deals with Serotoninergic 5-HT7 (Homo sapiens, UniProt P34969). Briefly: CNS receptor binding assay, 5-HT7. The conditions noted are these: MAP4343 10 µM; [^3H] LSD; Human recombinant (CHO cells); read-out: % Inhibition of control specific binding. On the procedure:
as §1, §2

For the next assay, the target named is Histaminergic H2 (Homo sapiens, UniProt P25021). Briefly: CNS receptor binding assay, H2. The conditions noted are these: MAP4343 10 µM; [^125I] APT; Human recombinant (CHO cells); read-out: % Inhibition of control specific binding. On the procedure:
as §1, §2

Another assay relates to Wistar Kyoto (WKY) rats. Kind of assay: Elevated-plus maze (EPM), WKY rats. In kind it is in vivo, rat. The conditions noted are these: acute, MAP4343 10 mg/kg s.c., fluoxetine 10 mg/kg, ketamine 30 mg/kg i.p., Fig. 5D. The method, then: After a 6-day period of acclimatization, all experimental groups received daily successive subcutaneous (250 µl per rat) and intraperitoneal (1 ml/kg) injections. WI rats received injection of vehicle (sesame oil + saline) while WKY rats were randomly assigned to […], as follow: KWY rats receiving only vehicle (sesame oil + saline) and WKY rats treated with MAP4343 (10 mg/kg, s.c.; rats received in parallel i.p. injections of saline), fluoxetine (10 mg/kg i.p., rats received in parallel s.c. injections of sesame oil) or ketamine (30 mg/kg, i.p.; rats received in parallel s.c. injections of sesame oil) (see Figure 3).
After, a 6-day period of acclimatization, the acute phase of treatment started for 4 days during behavioral tests were performed (Figure 3). All animals were injected 1h30 before the starting of behavioral test.
We used the elevated-plus maze (EPM) as an assay of anxiety-related behavior in rodents (Walf and Frye, 2007). Rats were initially placed in the center of the plus-maze, consisting of two open arms (50 x 10 cm) and two closed arms (50 x 10 cm enclosed by 40 cm walls), in a 50 lux illuminated room and videotaped during 5 min using a computerized system (VideoTrack V2.5, ViewPoint, Lyon, France). The time spent in the open versus closed arms was blindly measured by two independent experimenters from the recorded video, and the open arm-index was calculated as follow: time in the open arms (sec) / [time in open arms (sec) + time in closed arms (sec)].

Assay [2] deals with T2, human progesterone receptor(PR) (Homo sapiens, UniProt P06401).
T2 construct: expressed in transfected cells; host or cells: HEK293T
T2 sequence (P06401 1-933): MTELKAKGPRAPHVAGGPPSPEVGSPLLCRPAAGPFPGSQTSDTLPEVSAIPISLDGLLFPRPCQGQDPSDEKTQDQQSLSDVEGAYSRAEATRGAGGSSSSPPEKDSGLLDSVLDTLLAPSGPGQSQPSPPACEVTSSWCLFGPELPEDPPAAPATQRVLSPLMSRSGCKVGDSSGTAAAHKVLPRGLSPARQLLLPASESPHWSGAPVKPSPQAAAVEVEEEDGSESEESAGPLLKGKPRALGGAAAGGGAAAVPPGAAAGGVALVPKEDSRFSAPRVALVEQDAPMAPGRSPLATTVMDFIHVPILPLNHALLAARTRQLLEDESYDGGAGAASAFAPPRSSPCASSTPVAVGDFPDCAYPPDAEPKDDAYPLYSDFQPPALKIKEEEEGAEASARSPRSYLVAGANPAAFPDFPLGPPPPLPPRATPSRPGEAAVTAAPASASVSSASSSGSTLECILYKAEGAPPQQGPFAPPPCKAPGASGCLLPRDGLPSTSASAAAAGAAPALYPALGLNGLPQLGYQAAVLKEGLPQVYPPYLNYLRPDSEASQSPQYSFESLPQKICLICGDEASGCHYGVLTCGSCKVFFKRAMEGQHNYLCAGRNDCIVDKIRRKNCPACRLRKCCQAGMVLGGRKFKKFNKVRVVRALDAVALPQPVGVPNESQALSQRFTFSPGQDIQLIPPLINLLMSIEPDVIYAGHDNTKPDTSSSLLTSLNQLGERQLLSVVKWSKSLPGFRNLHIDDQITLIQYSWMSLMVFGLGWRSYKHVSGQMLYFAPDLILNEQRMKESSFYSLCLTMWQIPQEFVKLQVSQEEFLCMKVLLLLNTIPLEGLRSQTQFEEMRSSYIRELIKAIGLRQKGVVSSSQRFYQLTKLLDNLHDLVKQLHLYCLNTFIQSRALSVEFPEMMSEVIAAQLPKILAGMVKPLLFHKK
Kind of assay: Test of progesterone receptor agonist activity (MMTV-luciferase transactivation in transfected HEK293T cells). In kind it is cell-based. Particulars: 24 hours, increasing amounts, Figure 1. The method, then:
The main experimental setting used is the following: HEK293T cells were transiently transfected, using calcium phosphate precipitation technology, with expression vectors pSG5hPR (which permits expression of human progesterone receptor(PR)), pFC31-luc (contains the luciferase gene under the control of the MMTV promoter, which is in turn activated by binding of a progestin to progesterone receptor) and pcbetagal (which permits expression of betagalactosidase), and cultured during 24 hours with increasing amounts of various compositions: • 1. […] Test of progesterone receptor […] activity: transfected cells were cultured with progesterone (1 nM) and increasing amounts of RU486 (a well-known progesterone receptor antagonist) or 3-methoxy-pregnenolone. With this setting, a compound with progesterone receptor antagonist activity competes with progesterone for the occupation of progesterone receptor and results in a progressive loss of transactivation activity when the amount of this compound is increased compared to progesterone.

The test system of a further assay is GABA (non-selective). Kind of assay: CNS receptor binding assay, GABA (non-selective). Particulars: MAP4343 10 µM; [^3H] GABA; rat cerebral cortex. On the procedure: as §1, §2
A further assay deals with T3, ERβ (Homo sapiens, UniProt Q92731).
T3 construct: host or cells: Sf9 cells
T3 sequence (Q92731 whole entry): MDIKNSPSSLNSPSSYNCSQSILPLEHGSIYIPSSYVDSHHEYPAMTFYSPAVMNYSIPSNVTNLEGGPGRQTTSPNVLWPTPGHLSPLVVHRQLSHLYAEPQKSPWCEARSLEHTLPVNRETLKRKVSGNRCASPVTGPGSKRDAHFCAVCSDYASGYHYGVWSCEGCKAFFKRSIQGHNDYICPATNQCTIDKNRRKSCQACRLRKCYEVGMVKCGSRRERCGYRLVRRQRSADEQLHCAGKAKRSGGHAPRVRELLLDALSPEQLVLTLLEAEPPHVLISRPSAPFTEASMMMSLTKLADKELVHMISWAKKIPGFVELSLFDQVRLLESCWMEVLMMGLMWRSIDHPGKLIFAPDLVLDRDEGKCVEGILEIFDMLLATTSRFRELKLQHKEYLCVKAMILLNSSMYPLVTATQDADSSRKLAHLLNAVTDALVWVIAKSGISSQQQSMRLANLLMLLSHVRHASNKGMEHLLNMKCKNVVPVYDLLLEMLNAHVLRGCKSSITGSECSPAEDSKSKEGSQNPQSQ
Kind of assay: Radioligand binding assay, steroid hormone receptor ERβ. The conditions noted are these: MAP4343 10 µM; 0.5 nM [^3H] Estradiol; Human recombinant Sf9 cells; second ER row. On the procedure: Binding affinity of 3β-methoxy-PREG (MAP4343) for receptors of steroid hormones was evaluated using radioligand binding assays.
Table 3. Affinity of MAP4343 (10 µM) for steroid hormones receptors measured by radioligand binding assays. […] None of the results met significance criteria at concentrations used.

The term inhibition denotes the drop in the measured response relative to a control, in per cent. One may read the % inhibition as the share of the control response that was lost under treatment.

Sequence of Oppioid K (P34975 whole entry): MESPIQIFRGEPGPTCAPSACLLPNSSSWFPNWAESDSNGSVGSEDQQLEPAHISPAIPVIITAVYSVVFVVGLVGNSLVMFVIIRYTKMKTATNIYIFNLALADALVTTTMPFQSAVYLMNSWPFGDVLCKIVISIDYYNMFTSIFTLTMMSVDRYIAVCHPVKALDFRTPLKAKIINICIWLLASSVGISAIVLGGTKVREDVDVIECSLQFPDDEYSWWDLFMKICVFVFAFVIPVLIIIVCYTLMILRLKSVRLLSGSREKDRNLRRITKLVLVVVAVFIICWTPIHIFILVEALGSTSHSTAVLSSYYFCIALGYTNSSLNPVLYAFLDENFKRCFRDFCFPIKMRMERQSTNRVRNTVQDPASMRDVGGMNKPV
Sequence of Histaminergic H2 (P25021 whole entry): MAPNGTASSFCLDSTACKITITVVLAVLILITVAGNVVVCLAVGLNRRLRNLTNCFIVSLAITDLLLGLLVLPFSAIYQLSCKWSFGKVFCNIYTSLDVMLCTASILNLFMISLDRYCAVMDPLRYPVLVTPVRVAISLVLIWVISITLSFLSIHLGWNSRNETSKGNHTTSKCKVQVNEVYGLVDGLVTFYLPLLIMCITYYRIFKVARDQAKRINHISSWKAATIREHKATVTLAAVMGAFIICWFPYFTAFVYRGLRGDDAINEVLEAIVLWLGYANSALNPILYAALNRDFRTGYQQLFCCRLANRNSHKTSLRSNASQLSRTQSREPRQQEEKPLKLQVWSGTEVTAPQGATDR
Sequence of Serotoninergic 5-HT7 (P34969 whole entry): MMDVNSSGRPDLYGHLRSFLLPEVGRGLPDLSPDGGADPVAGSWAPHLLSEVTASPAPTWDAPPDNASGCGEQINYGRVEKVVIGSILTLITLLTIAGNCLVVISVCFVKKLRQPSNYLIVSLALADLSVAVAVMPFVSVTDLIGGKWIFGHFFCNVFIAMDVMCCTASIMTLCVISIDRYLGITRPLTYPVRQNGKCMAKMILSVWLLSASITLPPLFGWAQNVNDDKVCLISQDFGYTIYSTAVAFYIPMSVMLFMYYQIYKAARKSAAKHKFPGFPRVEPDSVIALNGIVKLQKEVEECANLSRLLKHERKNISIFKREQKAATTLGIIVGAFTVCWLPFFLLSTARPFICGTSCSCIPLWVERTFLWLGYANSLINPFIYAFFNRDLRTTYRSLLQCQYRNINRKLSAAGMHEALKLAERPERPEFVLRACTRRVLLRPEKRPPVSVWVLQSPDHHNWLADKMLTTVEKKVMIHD

On to `CO[C@H]1CC[C@@]2(C)C(=CC[C@H]3[C@@H]4CC[C@H](C(C)=O)[C@@]4(C)CC[C@@H]32)C1` (stereo in doubt) [MAP4343, 3β-methoxy-pregna-5-ene-20-one], for which the inhibition at 10 µM at Oppioid K was 19%; in assay [1], 20%; on Serotoninergic 5-HT7, -11%; on Histaminergic H2 it was -21%; on ERβ it was below 25%. The “open-arm (OA) index, change when compared to WKY receiving vehicle alone” value with Wistar Kyoto (WKY) rats came out at 165%. Moreover, the “progesterone receptor agonist activity (transactivation activity leading to the expression of luciferase)” value in assay [2] is “does not permit such a transactivation activity”. Moreover, the “% Inhibition of control specific binding” value in the assay on GABA (non-selective) is listed as 2%. Also, the “% inhibition” value at ERβ is 16%.
